In US10328065B2, “Pharmaceutical combination comprising the PI3K inhibitor alpelisib and the B-RAF inhibitor dabrafenib; the use of such combination in the treatment or prevention of cancer” (Novartis AG, priority 2015, dated 2019):

Experiments:
Assay type in all cases: cell-based
RKO = assay: Cell proliferation (cell count by microscopy) and HSA synergy, RKO; conditions: Homo sapiens, cell line printed RXO (BRAF, PIK3CA mutant), 72 h, 50% of cell counts relative to DMSO, tested A 13 nM-10 μM, B 1.4 nM-1 μM
Procedure: (§1) COMPOUNDS A and B were dissolved in 100% DMSO (Sigma, Catalog number D2650) at concentrations of 20 mM and stored at −20° C. until use. Compounds were arrayed in drug master plates (Greiner, Catalog number 788876) and serially diluted 3-fold (7 steps) at 2000× concentration.
(§2) Colorectal cancer cell lines used for this study were obtained, cultured and processed from commercial vendors ATCC, HSRRB, and CellBank Australia (Table 1). All cell line media were supplemented with 10% FBS (HyClone, Catalog number SH30071.03). Media for LIM2405 and LIM2551 was additionally supplemented with 0.6 μg/mL Insulin (SIGMA, Catalog number 19278), 1 μg/mL Hydrocortisone (SIGMA, Catalog number H0135), and 10 μM 1-Thioglycerol (SIGMA, Catalog number M6145).
(§3) Cell lines were cultured in 37° C. and 5% CO2 incubator and expanded in T-75 flasks. In all cases cells were thawed from frozen stocks, expanded through ≥1 passage using 1:3 dilutions, counted and assessed for viability using a ViCell counter (Beckman-Coulter) prior to plating. To split and expand cell lines, cells were dislodged from flasks using 0.25% Trypsin-EDTA (GIBCO, Catalog number 25200). All cell lines were determined to be free of mycoplasma contamination as determined by a PCR detection methodology performed at Idexx Radil (Columbia, Mo., USA) and correctly identified by detection of a panel of SNPs. […]

HT-29 = assay: Cell proliferation (cell count by microscopy) and HSA synergy, HT-29; conditions: Homo sapiens; HT-29 (BRAF, PIK3CA mutant); 72 h; 50% of cell counts relative to DMSO; tested A 13 nM-10 μM, B 1.4 nM-1 μM
Procedure: as §1, §2, §3

LIM2551 = assay: Cell proliferation (cell count by microscopy) and HSA synergy, LIM2551; conditions: LIM2551 (BRAF, PIK3CA mutant); 72 h; 50% of cell counts relative to DMSO; tested A 13 nM-10 μM, B 1.4 nM-1 μM
Procedure: as §1, §2, §3

LS411N = assay: Cell proliferation (cell count by microscopy) and HSA synergy, LS411N; conditions: Homo sapiens, LS-411N; LS411N (BRAF mutant); 72 h; 50% of cell counts relative to DMSO; tested A 13 nM-10 μM, B 1.4 nM-1 μM
Procedure: as §1, §2, §3

COLO-205 = assay: Cell proliferation (cell count by microscopy) and HSA synergy, COLO-205; conditions: Homo sapiens; COLO-205 (BRAF mutant); 72 h; 50% of cell counts relative to DMSO; tested A 13 nM-10 μM, B 1.4 nM-1 μM
Procedure: as §1, §2, §3

LIM2405 = assay: Cell proliferation (cell count by microscopy) and HSA synergy, LIM2405; conditions: LIM2405 (BRAF mutant); 72 h; 50% of cell counts relative to DMSO; tested A 13 nM-10 μM, B 1.4 nM-1 μM
Procedure: as §1, §2, §3

OUMS-23 = assay: Cell proliferation (cell count by microscopy) and HSA synergy, OUMS-23; conditions: OUMS-23 (BRAF mutant); 72 h; 50% of cell counts relative to DMSO; tested A 13 nM-10 μM, B 1.4 nM-1 μM
Procedure: as §1, §2, §3

IC50 (HT-29) | IC50 (COLO-205) | Structure (SMILES) | IC50 (RKO) | IC50 (LIM2551) | IC50 (LS411N) | IC50 (LIM2405) | IC50 (OUMS-23)
1.9 µM | > 10 µM | Cc1nc(NC(=O)N2CCC[C@H]2C(N)=O)sc1-c1ccnc(C(C)(C)C(F)(F)F)c1 [COMPOUND A, (S)-Pyrrolidine-1,2-dicarboxylic acid 2-amide 1-({4-methyl-5-[2-(2,2,2-trifluoro-1,1-dimethyl-ethyl)-pyridin-4-yl]-thiazol-2-yl}-amide)] | 2.6 µM | 1.4 µM | > 10 µM | > 10 µM | > 10 µM
0.012 µM | 0.01 µM | CC(C)(C)c1nc(-c2cccc(NS(=O)(=O)c3c(F)cccc3F)c2F)c(-c2ccnc(N)n2)s1 [COMPOUND B, N-{3-[5-(2-Amino-4-pyrimidinyl)-2-(1,1-dimethylethyl)-1,3-thiazol-4-yl]-2-fluorophenyl}-2,6-difluorobenzenesulfonamide] | 0.191 µM | 0.023 µM | > 1 µM | 0.007 µM | > 1 µM
